The text below walks through data of US20150366877A1, “METHODS OF TREATMENT OF HUMAN CYTOMEGALOVIRUS INFECTION AND DISEASES WITH BROMODOMAIN INHIBITORS” (Washington University, priority 2013, published 2015).

Where two headings read alike, the source gives them in different places.

In experiment [1] the test system is HCMV laboratory strain AD169-GFP. The experiment is described as follows: microbe, parasite or virus in culture. Format: cell-based, Human cytomegalovirus. The conditions noted are these: Human betaherpesvirus 5, AD169, HFF. On the procedure:
(§1) Drug effects were calculated as a percentage of reduction in GFPU in the presence of each drug concentration comported to the GFPU determined in the absence of drug. The dose-response curves were calculated using the GraphPad Prism 6 (GraphPad Software, USA),
(§2) In these experiments, the inventors determined the IC50 and IC90 values of respective BET bromodomain inhibitors against HCMV infection using fluorescence reduction assay (FIG. 9; Table 3) s.

Experiment [2] has the same test system. The experiment is described as follows: Time of addition assay on HCMV replication (GFP units). Format: cell-based, Human cytomegalovirus. The conditions noted are these: fixed concentration ~6.5×IC50, added at indicated hpi, GFP units after 7 days.
For experiment [3], the system named is HCMV clinical strain TR-GFP. The experiment is described as follows: microbe, parasite or virus in culture. It counts as cell-based, Human cytomegalovirus. The note with it: Human betaherpesvirus 5, HFF. On the procedure:
as §1, §2

Experiment [4] has as its system HCMV. The experiment is described as follows: Administration to a patient infected with HCMV (HCMV titers). Format: in vivo, Human cytomegalovirus. On the procedure: A patient is infected with HCMV. A health practitioner administers an amount calculated to provide 1 μM of the bromodomain inhibitor GSK525762A by intraperitoneal injection. The patient's HCMV titers decrease.

The subject of experiment [5] is HCMV. In words: Anti-HCMV activity in cultured primary human fibroblasts. It counts as cell-based, Human cytomegalovirus.
For experiment [6], the system named is fatty acid synthase (FASN) and solute carrier family 38 member 5 (SLC38A5). In words: RNA-seq differential expression of FASN and SLC38A5 in HCMV-infected HFF. It counts as cell-based, human. The conditions noted are these: 250 uM, MOI 3, 48 hpi. On the procedure:
HFF cells were mock-infected or HCMV infected with laboratory strain AD169-GFP at a MOI of 3. (FIG. 12A) HFF cells were infected with AD169-GFP at a MOI of 3 in the presence or absence of […] (+)-JQ-1. (FIG. 12B) Cells from both (A) and (B) were harvested at 48 hpi and the total RNA was extracted using a column-based RNA purification kit (Qiagen). RNA integrity was evaluated with a Nano-drop spectrometer (NanoDrop, Wilmington, Del.). Messenger RNA purification, fragmentation, construction of sequencing library and sequencing were performed. The differential expression profiles of two c-Myc inducible genes, fatty acid synthase (FASN) and solute carrier family 38 member 5 (SLC38A5), were determined using an EdgeR procedure.

In another experiment the test system is HCMV AD169 strain. Format: cell-based, Human cytomegalovirus.
Experiment [7] relates to HCMV laboratory strain AD169-GFP. In words: TCID50 assay of culture supernatant (release of viral particles), AD169-GFP. It counts as cell-based, Human cytomegalovirus. The note with it: Human betaherpesvirus 5, AD169. The procedure:
(§3) In these experiments, the inventors used TCID50 assays to quantify the IC50 of (+)-JQ-1 in both HCMV laboratory-adapted and clinical strains (FIG. 9; Table 5). HFFs were infected with laboratory strain. AD169-GFP or laboratory strains FIXGFP & Toledo at an MOI of 3 in the presence of (+)-JQ-1 at the range of 0-2,000 nM. Culture media were changed every 24 hrs to maintain the concentration of JQ1. At 5 dpi, viral titers were determined by TCID50.

Experiment [8] deals with HCMV clinical strain FIX-GFP. The experiment is described as follows: TCID50 assay of culture supernatant (release of viral particles), FIX-GFP. Format: cell-based, Human cytomegalovirus. The note with it: Human betaherpesvirus 5. The procedure:
as §3

Experiment [9] relates to HCMV late proteins (pp71, pp150 and pp28). In words: Immunoblot analysis of HCMV proteins in infected HFFs. It counts as cell-based, Human cytomegalovirus. The conditions noted are these: MOI 3, different concentrations, 24, 48 and 72 hours post infection. On the procedure: The method is as described by Perng et al. 2011. HFFs were infected with HCMV, strain AD169, at an MOI of 3 in the presence of different concentrations of JQ1. Culture media was changed every 24 hours to maintain the concentration of JQ1. Cells were harvested at 24, 48 and 72 hours post infection, HCMV proteins, immediate-early protein (IE1), early protein (UL69), and late proteins (pp71, pp150 and pp28) were determined by immunoblot analysis. (FIG. 4)

Experiment [10] relates to HCMV clinical strain Toledo. The experiment is described as follows: TCID50 assay of culture supernatant (release of viral particles), Toledo. Format: cell-based, Human cytomegalovirus. The note with it: Human betaherpesvirus 5, MOI 3, 5 dpi. The procedure: as §3
The test system of experiment [11] is HCMV, strain AD169 infected human foreskin fibroblasts. In words: Phase-contrast/fluorescence microscopy of HCMV-infected HFF (cytomegaly morphology). The conditions noted are these: 500 nm. Format: cell-based, Human cytomegalovirus. On the procedure:
In these experiments, human foreskin fibroblasts (HFF) were infected with HCMV, strain AD169, at a multiplicity of infection (MOI) of 3 in the presence or absence of JQ1 […]. Culture media was changed every 24 hours to maintain the concentration of JQ1. Infected cells were examined by phase-contrast or fluorescence microscopy at 72 or 96 hours post infection (hpi). “Cytomegalic” cells appear larger in size with a characteristic intranuclear, homogenous, eosinophilic inclusion which can occupy the entire nucleus of the cell.

For a further experiment, the system named is HCMV, strain AD169. In words: TCID50 assay of viral progeny in culture media, AD169-infected HFFs. It counts as cell-based, Human cytomegalovirus. The conditions noted are these: for reduction of viral titer: 125 nM; for IC50: Human betaherpesvirus 5, AD169, 120 h. On the procedure:
In this experiment, the inventors used TCID50 assays to determine the amounts of infectious viral particle in culture supernatants release from HCMV-infected cells, HFFs were infected with HCMV, strain AD169, at an MOI of 3 in the presence of different concentrations of JQ1. Culture media was changed every 24 hours to maintain the concentration of JQ1. At 5 (FIG. 2A) and 6 (FIG. 2B) days post infection (DPI), infected culture media was collected and titers of viral progeny in media was determined by TCID50 assay as described by Perng et al., 2011. The detection limit is indicated by the dashed line. (FIG. 2)
HFFs were infected with HCMV, strain AD 169, at an MOI of 3 in the presence of JQ1 at the range of 0-2000 nM. Culture media was changed every 24 hours to maintain the concentration of JQ1. At 5 days post infection, viral titers were determined by TCID50. […] These calculated IC50 values are much lower than published values used in the treatment of cancer.

Experiment [12] has as its system HCMV clinical strain TR-GFP. Format: cell-based, Human cytomegalovirus.

As a reminder, the IC90 is the point of the concentration-response curve where the effect stands at 90%. As for `CCOC(=O)Nc1cc(-c2ccc(C)c(NS(C)(=O)=O)c2)nn2c(C)nnc12` [Bromosporine, N-[6-(3-methanesulfonamido-4-methylphenyl)-3-methyl-[1,2,4]triazolo[4,3-b]pyridazin-8-yl]carbamate], in experiment [1], the IC50 turned out to be 290 nM and the IC90 is 640 nM.
On to `Cc1sc2c(c1C)C(c1ccc(Cl)cc1)=N[C@@H](CC(=O)Nc1ccc(O)cc1)c1nnc(C)n1-2` [OTX-015, (S)-2-[4-(4-chlorophenyl)-2,3,9-trimethyl-6H-thieno [3,2-f][1,2,4]triazolo-[4,3-a][1,4]diazepin-6-yl]-N-(4-hydroxyphenyl)acetamide], for which the “effect of the time of addition on HCMV replication” value (“effect of the time of addition” below) in experiment [2] is “block HCMV infections regardless of times post infection”. In experiment [3], this molecule returned an IC50 of 29 nM and an IC90 of 85 nM. In experiment [1], this molecule gave an IC50 of 69 nM and an IC90 of 210 nM. Moreover, the “patient's HCMV titers” value in the experiment with HCMV [4] (therapeutically effective amount, oral administration) is “decrease”.
In the case of `CCNC(=O)C[C@@H]1N=C(c2ccc(Cl)cc2)c2cc(OC)ccc2-n2c(C)nnc21` [I-BET762, 2-[(4S)-6-(4-chlorophenyl)-8-methoxy-1-methyl-4H-[1,2,4]triazolo[4,3-a][1,4]benzodiazepine-4-yl]-N-ethylacetamide], the “effect of the time of addition” value in [2] is given as “block HCMV infections regardless of times post infection”. Besides, in the experiment with HCMV [4] (amount calculated to provide 1 μM, intraperitoneal injection), the “patient's HCMV titers” value is given as “decrease”.
In experiment [1], `Nc1nc(O)c2ncn(COC(CO)CO)c2n1` [Ganciclovir] showed an IC50 of 1780 nM and an IC90 of 25000 nM.
Take `COc1ccccc1S(=O)(=O)Nc1ccc2c(c1)CN(C)C(=O)N2` [PFI-1, 2-Methoxy-N-(3-methyl-2-oxo-1,2,3,4-tetrahydro-6-quinazolinyl)benzenesulfonamide]: the IC50 in experiment [3] was determined as 420 nM; in experiment [1], 790 nM. For the same molecule, the IC90 in [3] was determined as 1220 nM; in experiment [1], 2560 nM.
In the case of `Cc1sc2c(c1C)C(c1ccc(Cl)cc1)=N[C@@H](CC(N)=O)c1nnc(C)n1-2` [CPI-203, (S)-2-(4-(4-chlorophenyl)-2,3,9-trimethyl-6H-thieno [3,2-f][1,2,4]triazolo[4,3-a][1,4]diazepin-6-yl)acetamide], in [1], the IC50 turned out to be 40 nM and the 90% effect level (IC90) was put at 140 nM.
Turning to `COc1cc(OC)c2c(=O)[nH]c(-c3cc(C)c(OCCO)c(C)c3)nc2c1` [RVX-208, 2-[4-(2-hydroxyethoxy)-3,5-dimethyl-phenyl]-5,7-dimethoxy-3H-quinazolin-4-one], in experiment [3], the IC50 was 3160 nM and the IC90 was 6670 nM. In experiment [1], the IC50 was 7930 nM and the IC90 is 31100 nM. Besides, the “Concentration to inhibit HCMV replication” value in the experiment on HCMV [5] was in the range of 14.063 to 28.125 µM. Moreover, the “patient's HCMV titers” value in the experiment on HCMV [4] (amount calculated to provide 19 μM, intraperitoneal injection) was “decrease”.
`Cc1sc2c(c1C)C(c1ccc(Cl)cc1)=N[C@@H](CC(=O)OC(C)(C)C)c1nnc(C)n1-2` [(+)-JQ1, 4-(4-chlorophenyl)-2,3,9-trimethyl-1,1-dimethylethyl ester-6H-thieno[3,2-f][1,2,4]triazolo[4,3-}{1,4}diazepine-6S-acetic acid]: in [2], the “effect of the time of addition” value is recorded as “block HCMV infections regardless of times post infection”. Further, the IC50 in experiment [3] is 39 nM; in experiment [1], 77 nM; in [7], 18 nM; in experiment [8] it was 18 nM; in experiment [10], 22 nM; with HCMV, strain AD169 (read-out: IC50 (50% viral replication inhibitory concentration), AD169, MOI 3, 5 days post infection, calculated using four parameters) it was 21.6 nM. In the experiment on HCMV, strain AD169 (read-out: IC50 (50% viral replication inhibitory concentration), AD169, MOI 3, 5 days post infection, calculated using three parameters), the IC50 is 17.8 nM. For the same molecule, the IC90 stood at 93 nM in [3]; 210 nM in experiment [1]; 49 nM in experiment [7]; 31 nM in experiment [8]; 37 nM in experiment [10]. In [6], the “up-regulation of FASN and SLC38A5 by HCMV infection” value is “up-regulation is reversed”. Further, the “production of infectious viral particles (electron micrographs)” value in the experiment with HCMV AD169 strain is “blocks the production of infectious viral particles”. Moreover, the “accumulation of HCMV late proteins” value in [9] is given as “modestly inhibits”. The “morphology of infected HFF cells” value is “lost the “cytomegalic” morphology and an accumulation of dead cells was present” in [11] (MOI 3, 72 hours post infection); “lost the “cytomegalic” morphology and a greater accumulation of floating dead cells were present” in experiment [11] (MOI 3, 96 hours post infection). The “reduction of viral titer” value is recorded as “approximately 1000 fold” with HCMV, strain AD169 (5 days post infection) and “greater than 1000 fold” in the experiment with HCMV, strain AD169 (6 days post infection). The viral titer entry in the experiment with HCMV, strain AD169 (250 nM, 5 days post infection) is on record as “further reduced the viral titer”; in the experiment on HCMV, strain AD169 (250 nM, 6 days post infection), “undetectable”; with HCMV, strain AD169 (500 nM, 5 days post infection), “undetectable”; in the experiment with HCMV, strain AD169 (500 nM, 6 days post infection) it was “undetectable”. In experiment [12], the “production of infectious viral particles (EM analysis)” value is recorded as “blocks the production of infectious viral particles”. In addition, the “patient's HCMV titers” value in the experiment with HCMV [4] (therapeutically effective amount, intraperitoneal injection) is given as “decrease”.
For `COc1cccc(N2CCN(C3=Nc4c(F)cccc4[C@H](CC(=O)O)N3c3cc(C(F)(F)F)ccc3OC)CC2)c1` [Letermovir], the “effect of the time of addition” value in [2] is “cannot control the viral infection after 48 hours post-infection”. In addition, in [1], the IC50 is 4.1 nM and the IC90 came out at 5.8 nM.
On to `Nc1ccn(C[C@@H](CO)OCP(=O)(O)O)c(=O)n1` [Cidofovir], for which, in experiment [1], the IC50 is 150 nM and the 90% effect level (IC90) was put at 1080 nM.
On to `COc1cc2c(cc1-c1c(C)noc1C)ncc1[nH]c(=O)n(C(C)c3ccccn3)c12` (stereo in doubt) [I-BET151, 7-(3,5-Dimethyl-1,2-oxazol-4-yl)-8-methoxy-1-[(1R)-1-(2-pyridinyl)ethyl]-1,3-dihydro-2H-imidazo[4,5-c]quinolin-2-one], for which the IC50 in experiment [3] was 110 nM; in [1] it was 160 nM. Further, the 90% effect concentration (IC90) was 160 nM in experiment [3] and 550 nM in experiment [1]. The “Concentration to inhibit HCMV replication” value with HCMV [5] lay in the range of 0.391 to 0.781 µM. Further, the “patient's HCMV titers” value with HCMV [4] (amount calculated to provide 0.5 μM, intraperitoneal injection) is recorded as “decrease”.
